Assay results reported in patent US10508092B2, “Synthesis of novel analogs of diptoindonesin G, compounds formed thereby, and pharmaceutical compositions containing them” (Wisconsin Alumni Research Foundation, priority 2016, dated 2019).
Values joined by “and” are separate entries in the source; they are usually repeats but may differ in a detail not shown here. Equal entries are not always repeated.

What was measured:
[1] = tested on: estrogen receptor β (ERβ); assay: Western blot of FLAG-ERβ levels in Hs578T-ERβLuc Dox-inducible cells; assay type: cell-based, human; conditions: Hs578T-ERβLuc Dox-inducible line, 10 μM, 5 days, Western blot (anti-FLAG)
Protocol: FIGS. 2A, 2B, and 2C together depict the biological activity of the subject compounds on estrogen receptor β (ERβ) levels in human breast cancer cells.
The biological activity of these four analogs were then compared with the parent compound Dip G following our previous protocol (Zhao et al., supra). See FIGS. 1A, 1B, 1C, 2A, 2B, and 2C. Cells were treated with each compound at 10 μM concentration in order to evaluate how well each modified the stability of ERα and ERβ.
MCF7 cells were treated with Dip G and analogs for 24 hours before harvesting. Hs578T-tet-on-ERβ cells (ATCC HTB-126; American Type Culture Collection, Manassas, Va.) were treated with doxycycline for 24 hours to induce ERβ expression. Then the cells were treated with compounds for 5 days before harvesting. 15 μg of total cell lysates were resolved on SDS-PAGE and Western blot analyses were performed as previously described using ERα antibody (HC-20, Santa Cruz Biotechnology, Inc., Dallas, Tex.) and anti-FLAG antibody (F7425, Sigma-Aldrich Co., LLC, St. Louis, Mo.) for ERβ.^3

[2] = patients, high dose administration of fulvestrant (500 mg); cited from earlier work

| Compound | ERβ stability [1] | melting point | peak plasma concentration [2] |
| --- | --- | --- | --- |
| O=C1c2c(O)cc(O)cc2-c2c(-c3ccccc3)oc3cc(O)cc1c23 [Compound 14] | moderately stabilized | > 260 °C |  |
| C[C@]12CC[C@@H]3c4ccc(O)cc4C[C@@H](CCCCCCCCC[S+]([O-])CCCC(F)(F)C(F)(F)F)[C@H]3[C@@H]1CC[C@@H]2O (stereo partly drawn) [fulvestrant] |  |  | ~20 ng/ml and ~30 nM |
